Reference: patent US12391646B2, “Using adiponectin receptor agonists to treat inflammation and bone diseases in diabetes” (Trustees of Tufts College, priority 2020, dated 2025)

Key:
Format in all cases: cell-based
[1] = tested on: NF-κB and p38 MAPK signaling pathways, APPL1; test: Western blotting of signaling proteins in Raw264.7 cells; conditions: for densitometry value p-IRAK4 (FIG. 5a) / densitometry value p-P38 (FIG. 5a) / densitometry value APPL1 (FIG. 5e), without LPS / densitometry value APPL1 (FIG. 5e), with LPS: relative to first lane 1.00, lane order inferred; for densitometry value p-IRAK4 (FIG. 5a) / densitometry value p-P38 (FIG. 5a): APR 20 μM or AdipoAI 5 μM 24 h, LPS 30 min; for densitometry value APPL1 (FIG. 5e), without LPS: APR 20 μM; for densitometry value APPL1 (FIG. 5e), with LPS: LPS alone 0.32
Procedure: FIG. 5 AdipoAI inhibition of NF-κB and p38 MAPK signaling pathways is dependent of AdipoR1/APPL1 axis in LPS-induced macrophages. (a) Impact of AdipoAI in the phosphorylation of related signaling proteins by western blotting. Raw264.7 cells were pretreated with APR (20 μM) or AdipoAI (5 μM) for 24 h followed by incubation with LPS (100 ng/mL) for an additional 30 min. Representative images are shown, and quantitative analysis of protein expression was performed by densitometric analysis (see lower panel), densitometry values—p-IRAK4: 1.00, 0.13, 0.09; p-P38: 1.00, 0.76, 0.26. (b) Expression of p65 protein in cytoplasmic and nuclear extracts of Raw264.7 cells. Representative images of p65 expression are presented along with Lamin B1 and β-actin expression which were used as internal loading controls. Quantitative analysis of protein expression was performed by densitometric analysis (lower panel), Densitometry values-p-P65: 0.53, 1.00, 0.38, 0.76; P65: 0.32, 1.00, 0.21, 0.53. (c) RAW 264.7 cells were transfected with siRNA targeting cither AdipoR1, AdipoR2, APPL1, APPL2 or scrambled control siRNA for 24 h, followed by stimulation with AdipoAI or APR for 24 h, then incubation with LPS for additional 6 h. Transfection efficiency of siRNA and mRNA expression levels of IL-6, IL-1β were measured by qPCR and normalized with GAPDH mRNA levels. Data were expressed as the mean±SEM at five biological independent experiments. One-way ANOVA test for multiple-group comparisons, *P<0.05, significant differences between each indicated group. ns, not significant. (d) RAW 264.7 cells were stimulated with LPS, AdipoAI, or APR for different times and proteins levels determined by western blotting. Representative western blotting images are shown along with β-actin used as an internal loading control and densitometric analysis. Densitometry values-Panel 1: APPL1: 1.00, 0.48, 0.44; Panel 2: APPL1: 1.00, 2.17, 5.38; Panel 3: APPL1: 1.00, 2.11, 4.82. (e) Raw264.7 cells were pretreated with APR (20 μM) or AdipoAI (5 μM) for 24 h followed by incubation with LPS (100 ng/mL) for additional 6 h for the measurement of related proteins by WB. Representative images are shown along with β-actin as an internal loading control and densitometric analysis. Densitometry values—APPL1: 1.00, 1.53, 1.58, 0.32, 0.45, 0.67. (f) Raw264.7 cells and (g) BMMs were transfected with siRNA targeting APPL1 or scrambled control siRNA for 24 h, followed by stimulation with AdipoAI for 24 h, then incubation with LPS for additional 6 h for western blotting analysis. Densitometry values for f—APPL1: 1.00, 0.43; p-IRAK4: 1.00, 1.31; p-P-38:1.00, 1.47. Densitometry values for g—APPL1: 1.00, 0.38; p-IRAK4: 1.00, 1.30; p-P38: 1.00, 1.67. Representative images are shown along with β-actin as an internal loading control, and densitometric analysis. No statistical analysis of western blotting for n=3.
Total cellular extracts were prepared using RIPA Lysis and Extraction Buffer containing three Protease Inhibitors (Thermo Scientific). Cytoplasmic and nuclear extracts were purified using NE-PER™ Nuclear and Cytoplasmic Extraction Reagents (Thermo Scientific). Experimental details of western blotting are in accordance with British Journal of Pharmacology guidelines (Alexander et al., 2018) and western blot analyses were performed as previously described (J. Zhang et al., 2017). Briefly, the total protein concentration was quantified using BCA kit (P1511; Applygen Technologies Inc., Beijing, China). The samples were separated by SDS-PAGE and electrophoretically transferred to a polyvinylidene difluoride membrane (Merck Millipore, Darmstadt, Germany). The membranes were blocked with 5% skim milk for 1 to 2 hr at room temperature. […]

[2] = tested on: RAW 264.7 cells (osteoclast differentiation); test: RANKL-induced osteoclast differentiation of RAW 264.7 cells; conditions: for number of osteoclast-like cells (TRAP staining): co-culture with RANKL 6 days, AdipoRon 20 μM, AdipoAI 5 μM
Procedure: RAW 264.7 cells (ATCC, Manassas, VA, USA) were cultured and passaged in DMEM supplemented with 10% (v/v) FBS (Invitrogen, Grand Island, NY, USA) and 1% Penicillin-Streptomycin (Gibco, Gaithersburg, MD, USA). For the induction of osteoclastogenesis, RAW 264.7 cells were cultured 24 in α-MEM supplemented with 10% FBS and 1% Penicillin-Streptomycin in the presence of 100 ng/ml RANKL (Peprotech, Rocky Hill, NJ, USA) for 2 days, and subsequently treated or not with AdipoRon or AdipoAI for another 2 days changing cell culture medium every 2 days. After a total of […] of culture, morphologic examination was performed, as was mRNA and protein expression. To simulate high glucose environment in vitro, α-MEM was supplemented with D-glucose to 25 mmol/l (high glucose) or 5 mmol/l (physiological glucose). 20 mmol/l D-mannitol served as an osmotic control.
Total RNA was isolated from cell cultures and gingival soft tissues using TriZol reagent (Life Technologies, Carlsbad, CA, USA) according to the manufacturer's instructions^24. Reverse transcription was performed using the PrimeScript RT Master Mix (Takara Bio, Otsu, Japan) and real-time-qPCR analyses were performed using SYBR-Green Real-Time PCR Master Mix (Takara Bio, Otsu, Japan) as described earlier^27.

[3] = tested on: LPS-stimulated RAW 264.7 macrophages; test: qPCR of cytokine mRNA in LPS-stimulated RAW 264.7 macrophages; conditions: for expression of anti-inflammatory cytokine IL-10: LPS-induced macrophages; for IL-10 expression, longer treatments / IL-10 mRNA expression, treatment for 18 h or less: macrophages; for IL-10 expression, longer treatments: longer than 18 h; for IL-10 mRNA expression, treatment for 18 h or less: no LPS
[4] = higher concentration, RANKL 100 ng/ml
[5] = LPS-induced Raw264.7 cells, AdipoAI 5 μM

Row | SMILES | APPL1 protein expression ([1]; Raw264.7 cells) | densitometry value p-IRAK4 (FIG. 5a) [1] | densitometry value p-P38 (FIG. 5a) [1] | densitometry value APPL1 (FIG. 5e), without LPS ([1]; AdipoAI 5 μM) | densitometry value APPL1 (FIG. 5e), with LPS [1] | downregulation of TRAP mRNA expression ([2]; 5 μM, RANKL 100 ng/ml) | number of osteoclast-like cells (TRAP staining) [2] | inhibition of TRAP mRNA expression [2, 4] | inhibition of cathepsin K mRNA expression [2, 4] | expression of anti-inflammatory cytokine IL-10 [3] | IL-10 expression, longer treatments [3] | IL-10 mRNA expression, treatment for 18 h or less [3] | phosphorylation of AKT, JNK or ERK ([1]; LPS-induced Raw264.7 cells) | decrease of phosphorylation of IRAK4 [1, 5] | decrease of phosphorylation of p38 [1, 5] | AdipoR1 or AdipoR2 protein levels ([1]; Raw264.7 cells) | LPS-induced p65 phosphorylation and nuclear translocation ([1]; Raw264.7 cells) | downregulation of cathepsin K mRNA expression ([2]; 5 μM, RANKL 100 ng/ml) | TNF-α expression levels ([3]; LPS-induced Raw264.7 macrophage, BMMs or PEMs (data not shown))
1 | O=C(COc1ccc(C(=O)c2ccccc2)cc1)NC1CCN(Cc2ccccc2)CC1 [AdipoRon, reference compound] | increased | 0.13 | 0.76 | 1.53 | 0.45 | no significant inhibition in TRAP mRNA expression | significantly reduced the number of osteoclast-like cells | 64.5% | 65.1% | downregulated expression of the anti-inflammatory cytokine IL-10 | decreased IL-10 expression | increased IL-10 mRNA expression | – | – | – | – | – | – | –
2 | COc1ccc(CN2CCC(NC(=O)COc3ccc(C(=O)c4ccc(Cl)cc4)cc3)CC2)cc1 [Compound 3] | increased APPL1 expression | 0.09 | 0.26 | 1.58 | 0.67 | 97.0% | significantly reduced the number of osteoclast-like cells | – | – | downregulated expression of the anti-inflammatory cytokine IL-10 | decreased IL-10 expression | increased IL-10 mRNA expression | did not significantly alter phosphorylation of AKT, JNK or ERK | 70% | 70% | did not influence AdipoR1 or AdipoR2 protein levels | suppressed LPS-induced p65 phosphorylation and nuclear translocation | 87.5% | did not inhibit TNF-α expression levels
